Results published in patent US7109174B2, “Anticonvulsant derivatives useful for preventing the development of type II diabetes mellitus and syndrome X” (Ortho-McNeil Pharmaceutical, Inc., priority 2000, dated 2006).

Columns and labels:
Format in all cases: in vivo
[1] = test system: Female db/db mice; assay: Oral glucose tolerance test (fasted) in female db/db mice after 11 days oral dosing; conditions: for Oral Glucose Tolerance Test (fasted) Plasma Glucose: ± sem
Procedure: Female db/db mice (C57BLK S/J-m^+/^+ Lepr^db Jackson Labs, Bar Harbor, Me.), 7–8 weeks of age, were housed four per cage in solid-bottomed shoe box cages. Room temperature was maintained at 68–72° F. and humidity at 50–65%. Room lighting was on a 12-hour light/12-hour dark cycle. The mice were maintained on NIH Rat and Mouse/Auto 6F reduced fat diet #5K52 (PMI Nutrition Int'l Inc.). Food and water were supplied ad libitum.
Test compound and vehicle were dosed orally and prepared as suspensions in 0.5% hydroxypropylmethylcellulose (Dow Chemical, Midland, Mich.). The dosing volume was 10 mL/kg of body weight.
Different groups of female db/db mice (7–8/group) were orally gavaged daily for 11 days with either 0.5% methylcellulose in dH2O (vehicle), topiramate at 30 or 100 mg/kg/day or 2,3:4,5-bis-O-(1-methylethylidene)-β-L-fructopyranose sulfamate (hereinafter referred to as Compound V) at 30 or 100 mg/kg/day. On day 10, the animals were fasted for 20 hours before being tested for oral glucose tolerance (OGT). On day 11, four hours after the final dose for each group, an oral glucose tolerance test (OGTT) was performed by oral glucose administration of 2 g/kg. Animals were bled through tail clip at 0 (before glucose), 30, 60 and 120 min after glucose challenge. The blood samples were collected into heparinized CB microvettes and then put on ice. The plasma samples will be assayed for plasma glucose determination by using SIGMA DIAGNOSTICS Trinder reagent (Sigma, St. Louis, Mo.). Statistical analysis was performed using the program Instat (Graphpad, Monrovia, Calif.) and performing one-way ANOVA with a Dunnett's multiple comparison test.
Following the above described procedure, the effect of topiramate and compound V on oral glucose tolerance in female db/db mice, 7 mice/group, was determined, with results as listed in Table 9. The abbreviation N represents the number of animals per study group.

[2] = test system: Heterozygous Non-Diabetic Mice; assay: Plasma glucose, triglycerides and body weight in heterozygous non-diabetic littermates, 11 days oral dosage; conditions: for Plasma Glucose % Change / Plasma Triglycerides % Change: versus vehicle; for Change in Body Weight / Plasma Glucose Plasma Conc. / Plasma Triglycerides Plasma Conc.: ± SEM
Procedure: Six to seven week old female C57 BLK SIJ-m^+/^+ Lepr^db mice (db/db) and heterozygous littermates were purchased from The Jackson Laboratory (Bar Harbor, Me.). Upon arrival the mice were quarantined for 5 days and housed in pairs in shoe-box cages containing ALPHA-dri® bedding (Shepherd Speciality Papers, Inc., Kalamazoo, Mich.). The mice were maintained at an ambient temperature of 21 to 23° C. on a 12 hour-12 hour light-dark schedule and given access to water and food ad libitum. The diet was comprised of NIH (National Institutes of Health) Rat and Mouse/Auto 6F Reduced Fat Diet No. 5K52 (PMI Nutrition International Inc., Brentwood, Mo.).
The vehicle, used as a reference and for test compounds, was 0.5% methylcellulose dissolved in water. The compounds were either fully dissolved or uniformly suspended in the vehicle when administered to the mice.
The db/db mice were randomly separated into five groups of eight, as were the heterozygous littermates. The groups were as follows: one vehicle control group and four groups that each received one of four doses of topiramate (TPM) (10, 30, 100, or 300 mg/kg, respectively). Topiramate or vehicle was administered orally by gavage once a day during the 8th hour of the light portion of the light-dark cycle.
Between 18 and 24 hours after the last dose was administered, the mice were anesthetized with CO2/O2 (70:30) and blood from the retro-orbital sinus puncture was collected into 2 mL heparinized snap-top polypropylene tubes, then placed in ice.
Plasma was separated from blood cells by centrifugation (15 minutes at 1600 g). For samples not assayed immediately, the plasma was transferred into 96-well plates and frozen at −70° C.
Glucose and triglycerides were assayed using standard procedures for blood clinical laboratories. Specifically, the samples were analyzed using an automated Hitachi 717 autoanalyzer (Boehringer Mannheim/Hitachi 717 Autoanalyzer, Boehringer Mannheim Laboratory Systems Division, Indianapolis, Ind.). A statistical analysis of data for the drug-treated groups compared to data for the vehicle group was performed using the one-way analysis of variance (ANOVA) with Dunnett's Multiple Comparisons test.
Following the procedure described above, the effect of topiramate on plasma glucose and triglyceride levels was determined for female diabetic db/db mice and littermates, following 11 days oral dosage, with results as listed in Table 3 and 4. Body weights are in Table 5. The abbreviation N represents the number of animals per study group.

[3] = test system: Female ZDF rats; assay: Blood glucose and oral glucose tolerance in female ZDF rats dosed orally for 16 days; conditions: for Plasma Glucose Levels: 16 days, ± SEM
Procedure: Female ZDF rats were also randomly divided into control and topiramate (30 or 100 mg/kg/day) treated groups, dosed orally for 16 days, and tested for blood glucose levels and oral glucose tolerance following glucose challenge of 2 g/kg. The effect of topiramate was as listed in Table 10 (N=8 rats per treatment group).

## CC1(C)O[C@@H]2[C@@H](CO[C@@]3(COS(N)(=O)=O)OC(C)(C)O[C@@H]23)O1 [Topiramate, 2,3:4,5-bis-O-(1-methylethylidene)-β-D-fructopyranose sulfamate]
[1]; 30 mg/kg/day, 0 min (before glucose 2 g/kg)
  Oral Glucose Tolerance Test (fasted) Plasma Glucose: 188 ± 16.7 mg/dL
[1]; 30 mg/kg/day, 30 min after glucose 2 g/kg
  Oral Glucose Tolerance Test (fasted) Plasma Glucose: 401 ± 68.4 mg/dL
[1]; 30 mg/kg/day, 60 min after glucose 2 g/kg
  Oral Glucose Tolerance Test (fasted) Plasma Glucose: 295 ± 31.5 mg/dL
[1]; 30 mg/kg/day, 120 min after glucose 2 g/kg
  Oral Glucose Tolerance Test (fasted) Plasma Glucose: 124 ± 20 mg/dL
[1]; 100 mg/kg/day, 0 min (before glucose 2 g/kg)
  Oral Glucose Tolerance Test (fasted) Plasma Glucose: 160 ± 12.8 mg/dL
[1]; 100 mg/kg/day, 30 min after glucose 2 g/kg
  Oral Glucose Tolerance Test (fasted) Plasma Glucose: 454 ± 38.5 mg/dL
[1]; 100 mg/kg/day, 60 min after glucose 2 g/kg
  Oral Glucose Tolerance Test (fasted) Plasma Glucose: 271 ± 52.6 mg/dL
[1]; 100 mg/kg/day, 120 min after glucose 2 g/kg
  Oral Glucose Tolerance Test (fasted) Plasma Glucose: 184 ± 32.3 mg/dL
[1]; 30 or 100 mg/kg/day
  elevated blood glucose levels induced by oral glucose challenge: suppressed
  fasting glucose levels: decreased
[2]; 10 mg/kg oral once a day
  Plasma Glucose % Change: −1.2%
  Plasma Triglycerides % Change: −0.3%
  Change in Body Weight: 0.5 ± 0.2 g
  Plasma Glucose Plasma Conc.: 145 ± 6 mg/dL
  Plasma Triglycerides Plasma Conc.: 141 ± 13 mg/dL
[2]; 30 mg/kg oral once a day
  Plasma Glucose % Change: +3.8%
  Plasma Triglycerides % Change: −17.5%
  Change in Body Weight: 0.0 ± 0.3 g
  Plasma Glucose Plasma Conc.: 152 ± 6 mg/dL
  Plasma Triglycerides Plasma Conc.: 116 ± 6 mg/dL
[2]; 100 mg/kg oral once a day
  Plasma Glucose % Change: +0.8%
  Plasma Triglycerides % Change: −34.8%
  Change in Body Weight: 0.2 ± 0.2 g
  Plasma Glucose Plasma Conc.: 148 ± 7 mg/dL
[2]; 100 mg/kg oral once a day, P < 0.01
  Plasma Triglycerides Plasma Conc.: 92 ± 6 mg/dL
[2]; 300 mg/kg oral once a day
  Plasma Glucose % Change: −17.2%
  Plasma Triglycerides % Change: −1.8%
  Plasma Triglycerides Plasma Conc.: 138 ± 15 mg/dL
[2]; 300 mg/kg oral once a day, P < 0.01
  Plasma Glucose Plasma Conc.: 121 ± 7 mg/dL
[2]; 300 mg/kg oral once a day, P < 0.05
  Change in Body Weight: -2.2 ± 0.5 g
[3]; 30 mg/kg/day oral, 60 Min after Challenge (glucose 2 g/kg), P < 0.05
  Plasma Glucose Levels: 342 ± 32 md/dL
[3]; 30 mg/kg/day oral, 90 Min after Challenge, P < 0.01
  Plasma Glucose Levels: 269 ± 32 md/dL
[3]; 30 mg/kg/day oral, 120 Min after Challenge, P < 0.01
  Plasma Glucose Levels: 206 ± 26 md/dL
[3]; 30 mg/kg/day oral, Time = 0
  Plasma Glucose Levels: 121 ± 13 md/dL
[3]; 100 mg/kg/day oral, 60 Min after Challenge (glucose 2 g/kg), P < 0.01
  Plasma Glucose Levels: 333 ± 32 md/dL
[3]; 100 mg/kg/day oral, 90 Min after Challenge, P < 0.01
  Plasma Glucose Levels: 242 ± 28 md/dL
[3]; 100 mg/kg/day oral, 120 Min after Challenge, P < 0.01
  Plasma Glucose Levels: 173 ± 23 md/dL
[3]; 100 mg/kg/day oral, Time = 0
  Plasma Glucose Levels: 129 ± 15 md/dL
[3]; at 60, 90 and 120 minutes after glucose challenge
  oral glucose tolerance: improves
